Source: PMC1851959, “Structure, substrate recognition and reactivity of Leishmania major mevalonate kinase” (BMC Structural Biology, 2007)

What was measured:
[1] = target: T1, LmMK (recombinant, bacterially expressed) (Leishmania major, UniProt Q4Q6K7); assay: X-ray crystal structure of complex, […] A (also radioactive kinase assay); type: binding
T1 construct: gene LMJF_31_0560; pET15b (NdeI/XhoI), E. coli BL21(DE3), N-terminal His-tag removed by thrombin; about 329 residues, monomer, about 35 kDa; 3 C-terminal residues disordered
T1 sequence (Q4Q6K7 1-329): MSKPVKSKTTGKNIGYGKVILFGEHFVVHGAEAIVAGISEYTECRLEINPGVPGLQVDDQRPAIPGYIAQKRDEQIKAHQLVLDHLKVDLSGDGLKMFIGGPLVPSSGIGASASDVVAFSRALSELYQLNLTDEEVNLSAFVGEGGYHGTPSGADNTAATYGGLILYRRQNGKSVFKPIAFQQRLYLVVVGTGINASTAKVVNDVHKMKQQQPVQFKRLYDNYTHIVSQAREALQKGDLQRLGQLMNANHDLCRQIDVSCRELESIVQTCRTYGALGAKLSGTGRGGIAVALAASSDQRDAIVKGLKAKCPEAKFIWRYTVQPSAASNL

TbMK (TbMK-HA) = target: T2, TbMK (TbMK-HA) (Trypanosoma brucei, UniProt Q57Y11); type: biochemical; conditions: phosphate donor; with 833 uM [3H](R)-MVA, MgCl2 5 uM, pH 7.0, 30 C
T2 construct: gene Tb04.1D20.470
T2 sequence (Q57Y11 entry or part of it): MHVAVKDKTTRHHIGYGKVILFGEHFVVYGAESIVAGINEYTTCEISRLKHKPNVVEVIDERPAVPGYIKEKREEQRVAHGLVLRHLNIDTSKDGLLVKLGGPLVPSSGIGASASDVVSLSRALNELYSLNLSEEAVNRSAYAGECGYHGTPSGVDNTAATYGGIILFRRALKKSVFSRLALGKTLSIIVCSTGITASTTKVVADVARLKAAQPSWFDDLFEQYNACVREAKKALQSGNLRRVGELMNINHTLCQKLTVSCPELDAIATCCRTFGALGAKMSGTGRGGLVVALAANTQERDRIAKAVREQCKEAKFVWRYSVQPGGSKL

[2] = target: T1, LmMK (recombinant, bacterially expressed); assay: radioactive phosphorylation assay, chromatography, scintillation counting; type: biochemical

Compound | X-ray crystal structure of complex, 1.9 A (also radioactive kinase assay) [1] | radioactive phosphorylation assay, chromatography, scintillation counting (TbMK (TbMK-HA)) | radioactive phosphorylation assay, chromatography, scintillation counting [2]
C[C@@](O)(CCO)CC(=O)O [(R)-MVA] | The electron density clearly indicated the presence of (R)-MVA in molecule A |  | 
Nc1ncnc2c1ncn2[C@@H]1O[C@H](COP(=O)(O)OP(=O)(O)OP(=O)(O)O)[C@@H](O)[C@H]1O [ATP] |  | an ATP-dependent MK activity in Leishmania and Trypanosoma | Activity of LmMK was observed after incubation of the enzyme with radiolabeled [^3H] (R)-MVA and ATP
